Where two headings read alike, the source gives them in different places.
Columns and labels:
H1792 = assay: Cell proliferation assay (MTT), KRAS^G12C expressing cell; settings: Homo sapiens, NCI-H1792, 72 h, read-out: IC50 anti-proliferative activity
H358 = assay: as above; settings: Homo sapiens, NCI-H358, 72 h, read-out: IC50 anti-proliferative activity
MiaPaca2 = assay: as above; settings: Homo sapiens, MIA PaCa-2, 72 h, read-out: IC50 anti-proliferative activity
KRAS^G12C [1] = target: T1, KRAS^G12C (Homo sapiens, UniProt P01116, G12C); assay: MANT-GDP nucleotide exchange assay (SOS1, GppNHp); assay type: biochemical
Description: The reaction was stopped by adding MgCl2 to a final concentration of 10 mM, then incubated at 20 °C for 30 min. The unbound MANT-GDP was removed using the NAP-5 column equilibrated with nucleotide exchange buffer (40 mM HEPES-NaOH (pH 7.5), 50 mM NaCl, 10 mM MgCl2, 2 mM Dithiothreitol DTT).

KRAS^wt = KRAS^wt (Homo sapiens, UniProt P01116); assay: MANT-GDP nucleotide exchange assay against wild type
Description: In the experiments, we used the GTP analogue, GppNHp, which cannot be hydrolyzed by Ras.
After the incubation, the MANT-GDP KRAS-inhibitor mixtures were loaded into a black 384-well microplate in the presence or absence of the different inhibitor molecules in various concentrations. The nucleotide exchange reaction was initiated by adding a 100-fold molar excess of GppNHp (catalog no.: G0635, Sigma-Aldrich), a nonhydrolyzable GTP analog, and the SOS1 exchange domain (catalog no.: GE02, Cytoskeleton, Inc.) protein in 0.2 μM final concentration. The change in fluorescence intensity was measured every 30 s in RT for 60 min on an EnvSpire plate reader (PerkinElmer, Inc.). The measured values were fitted to a single exponential function by using GraphPad Prism 10 software. The derived rates were normalized to the RAS-SOS1 minus RAS-only samples from which the IC50 values were calculated from three independent experiments with each inhibitor using GraphPad Prism 10 software.

[2] = HPLC-based GSH reactivity and stability assay; assay type: physicochemical; settings: for half-life at 250 μM: 5 mM glutathione, PBS pH 7.4, corrected for aqueous degradation, mean ± SD, n = 2, read-out: t1/2 GSH (converted); for experimental ΔG^#(GSH): free energy barrier calculated from t1/2 and GSH^– concentration
Description: The cysteine reactivity of the compounds was first assessed in a surrogate kinetic assay.[25],[26] Glutathione (GSH), a cysteine surrogate, was used in a large excess to ensure quasi-first-order reaction kinetics.
The sample was eluted with gradient elution using eluent A (0.1% FA in H2O) and eluent B (0.1% FA in ACN). The column temperature was always kept at 30 °C; the injection volume was 20 μL, the flow rate was set to 1.5 mL/min, and a Reprospher C18 (5 μm, 100 mm × 3 mm) column was used along with the following gradient. […] The AUC (area under the curve) values were determined via the integration of HPLC chromatograms and then corrected with the internal standard. The fragments’ AUC values were subjected to ordinary least-squares (OLS) linear regression, and to compute the important parameters (kinetic rate constant and half-life time), an Excel sheet was applied. The data are expressed as means of duplicate determinations. The kinetic rate constant for the degradation and corrected GSH reactivity were calculated as follows. The reaction half-life for pseudo-first-order reactions (t1/2) is ln 2/k, where k is the reaction rate. In the case of competing reactions (reaction with GSH and degradation), the apparent reaction rate is kapp = kdeg + kGSH. When half-lives are measured experimentally, t1/2(app) = ln 2/(kapp) = ln 2/(kdeg + kGSH). In our case, the corrected kdeg and kapp (regarding blank and GSH-containing samples, respectively) can be calculated by the linear regression of the measured kinetic data points. The corrected kGSH is calculated as kapp – kdeg, and finally, the half-life is determined using the equation t1/2 = ln 2/k.

KRAS^G12C [3] = target: T1, KRAS^G12C; assay: LC-MS occupancy measurements (KI and kinact determination); assay type: binding; settings: for kobs: 5 μM KRASG12C, duplicated experiments; for experimental ΔG^# (KRAS^G12C): free energy barrier calculated from kinact; for experimental ΔGbind: obtained as RT ln(KI) with KI in M units
KRAS^G12C [4] = settings: published value ref 46; cited from earlier work
[5] = KRAS^G12C, 60 min incubation with inhibitor, mean ± SD, n = 3, read-out: IC50 inhibition of nucleotide exchange
[6] = PBS buffer with 5 mM glutathione (GSH)
[7] = fit of kobs vs concentration, MS occupancy, mean ± SD, n = 2
[8] = fit of kobs vs concentration, MS occupancy, mean ± SD, n = 2, read-out: KI

SMILES	IC50 (H1792) [µM]	IC50 (H358) [µM]	IC50 (MiaPaca2) [µM]	IC50 (KRAS^G12C [1]; [5]) [µM]	IC50 (KRAS^wt) [µM]	half-life at 250 μM [2, 6] [h]	experimental ΔG^#(GSH) [2] [kcal/mol]	kinact/KI (KRAS^G12C [3]) [M⁻¹ s⁻¹]	kobs (KRAS^G12C [3]; 20 μM inhibitor) [s⁻¹]	kobs (KRAS^G12C [3]; 40 μM inhibitor) [s⁻¹]	kobs (KRAS^G12C [3]; 80 μM inhibitor) [s⁻¹]	kobs (KRAS^G12C [3]; 160 μM inhibitor) [s⁻¹]	kinact (KRAS^G12C [3]; [7])	Ki (KRAS^G12C [3]; [8]) [µM]	experimental ΔG^# (KRAS^G12C) (KRAS^G12C [3]) [kcal/mol]	experimental ΔGbind (KRAS^G12C [3])	half-life at 250 μM ([2]; buffer) [h]	Ki (KRAS^G12C [3]) [µM]	IC50 (KRAS^G12C [1]) [µM]	kinact/KI (KRAS^G12C [4])
C=CC(=O)N1CCN(c2ncnc3cc(-c4c(O)cccc4F)c(Cl)cc23)CC1 [1a, 1-(4-(6-Chloro-7-(2-fluoro-6-hydroxyphenyl)quinazolin-4-yl)piperazin-1-yl)prop-2-en-1-one]	16.2	2.3	1.8	0.827 ± 0.137																
C=CC(=O)N1CCN(c2nc(OCC3CCCN3C)nc3cc(-c4c(O)cccc4F)c(Cl)cc23)CC1 (centres unmarked) [1b, 1-(4-(6-Chloro-7-(2-fluoro-6-hydroxyphenyl)-2-((1-methylpyrrolidin-2-yl)methoxy)quinazolin-4-yl)piperazin-1-yl)prop-2-en-1-one]	30.1	1.1	0.53	0.52 ± 0.108	177															
CN1CCCC1COc1nc(N2CCN(C(=O)CCl)CC2)c2cc(Cl)c(-c3c(O)cccc3F)cc2n1 (centres unmarked) [2b, 2-Chloro-1-(4-(6-chloro-7-(2-fluoro-6-hydroxyphenyl)-2-((1-methylpyrrolidin-2-yl)methoxy)quinazolin-4-yl)piperazin-1-yl)ethan-1-one]	1.8	1.8	3.2	0.642 ± 0.115																
O=C(CCl)N1CCN(c2ncnc3cc(-c4c(O)cccc4F)c(Cl)cc23)CC1 [2a, 2-Chloro-1-{4-[6-chloro-7-(2-fluoro-6-hydroxyphenyl)-quinazolin-4-il]piperazine-1-yl}ethane-1-one]	2.9	2.7	3.1	0.305 ± 0.04																
CN1CCCC1COc1nc(N2CCN(C(=O)n3ccnc3)CC2)c2cc(Cl)c(-c3c(O)cccc3F)cc2n1 (centres unmarked) [3b, (4-(6-Chloro-7-(2-fluoro-6-hydroxyphenyl)-2-((1-methylpyrrolidin-2-yl)methoxy)quinazolin-4-yl)piperazin-1-yl)(1H-imidazol-1-yl)methanone]	17.7	9.9	8.8	243 ± 52.4		40 ± 18	19.7 ± 0.3	3.1 ± 0.7	0.00005 ± 0.00001	0.0006 ± 0.00001	0.00009 ± 0.00001	0.00010 ± 0.00001	0.13 ± 0.01 0.001 s^–1	42.2 ± 9.9	22.7 ± 0.0	–6.0 ± 0.1 kcal/mol				
O=C(C1CN1)N1CCN(c2ncnc3cc(-c4c(O)cccc4F)c(Cl)cc23)CC1 (centres unmarked) [4a, Aziridin-2-yl(4-(6-chloro-7-(2-fluoro-6-hydroxyphenyl)quinazolin-4-yl)piperazin-1-yl)methanone]	22.6	27.1	19.8				>20.1		0.00004 ± 0.00001	0.0006 ± 0.00001	0.00007 ± 0.00001	0.00008 ± 0.00001			22.9 ± 0.0	–6.3 ± 0.1 kcal/mol	> 72	22.2 ± 1.8	198 ± 39	
C=CC(=O)N1CCN(c2nc(OC[C@@H]3CCCN3C)nc3c(F)c(-c4nc(N)cc(C)c4C(F)(F)F)c(Cl)cc23)[C@@H](C)C1 [Divarasib]																				710,000 M^–1 s^–1
O=C(N1CCN(c2ncnc3cc(-c4c(O)cccc4F)c(Cl)cc23)CC1)n1ccnc1 [3a, (4-(6-Chloro-7-(2-fluoro-6-hydroxyphenyl)quinazolin-4-yl)piperazin-1-yl)(1H-imidazol-1-yl)methanone]	17.9	27.4	20.4	67.4 ± 11.3		35 ± 11	19.6 ± 0.2	9.8 ± 4.7	0.00014 ± 0.00003	0.00021 ± 0.00005	0.00033 ± 0.00004	0.00033 ± 0.00006	0.4 ± 0.1 0.001 s^–1	40.9 ± 16.7	22.0 ± 0.2	–6.0 ± 0.4 kcal/mol				
C=CC(=O)N1CCN(c2ncnc3c(F)c(-c4c(O)cccc4F)c(Cl)cc23)CC1 [ARS-1620, reference compound]	10.2	0.31	0.14																	
CN1CCCC1COc1nc(N2CCN(C(=O)C3CN3)CC2)c2cc(Cl)c(-c3c(O)cccc3F)cc2n1 (centres unmarked) [4b, Aziridin-2-yl(4-(6-chloro-7-(2-fluoro-6-hydroxyphenyl)-2-((1-methylpyrrolidin-2-yl)methoxy)quinazolin-4-yl)piperazin-1-yl)methanone]	30.8	90	48.2				>20.1		0.00029 ± 0.00018	0.00044 ± 0.00004	0.00072 ± 0.00018	0.00104 ± 0.00002			21.2 ± 0.1	–5.4 ± 0.2 kcal/mol	> 72	112 ± 30.1	84.4 ± 18.9	

From paper PMC11334105, “Contribution of Noncovalent Recognition and Reactivity to the Optimization of Covalent Inhibitors: A Case Study on KRas^G12C” (ACS Chemical Biology, 2024)
